The NIST ThermoML archive (doi:10.1021/je100832h)

What was measured:
[1] = xn = mol fraction of the nth substance listed; details: 101.32 kPa, Liquid, Vibrating tube method
[2] = excess molar enthalpy (molar enthalpy of mixing); xn = mol fraction of the nth substance listed; details: 291.15 K, 101 kPa, Liquid, Calvet calorimetry

CCOC(C)=O [ethyl acetate] + CCCCCCC
[1]
Details	mass density [kg/m3]
291.15 K, x1 = 0.0161	687.34
291.15 K, x1 = 0.0572	692.44
291.15 K, x1 = 0.1159	700.33
291.15 K, x1 = 0.2057	713.27
291.15 K, x1 = 0.2894	726.55
291.15 K, x1 = 0.3673	740
291.15 K, x1 = 0.4396	753.43
291.15 K, x1 = 0.5126	768.17
291.15 K, x1 = 0.5792	782.54
291.15 K, x1 = 0.6414	796.91
291.15 K, x1 = 0.7006	811.5
291.15 K, x1 = 0.7555	825.89
291.15 K, x1 = 0.8141	842.35
291.15 K, x1 = 0.8631	856.84
291.15 K, x1 = 0.9105	872
291.15 K, x1 = 0.9718	892.61
291.15 K, x1 = 1	902.88
298.15 K, x1 = 0.0409	684.35
298.15 K, x1 = 0.0568	686.42
298.15 K, x1 = 0.1196	694.72
298.15 K, x1 = 0.1493	698.85
298.15 K, x1 = 0.2079	707.39
298.15 K, x1 = 0.2587	715.2
298.15 K, x1 = 0.2981	721.51
298.15 K, x1 = 0.3171	724.7
298.15 K, x1 = 0.3703	733.9
298.15 K, x1 = 0.4203	743.04
298.15 K, x1 = 0.4911	756.8
298.15 K, x1 = 0.5587	770.85
298.15 K, x1 = 0.6169	783.73
298.15 K, x1 = 0.6668	795.46
298.15 K, x1 = 0.727	810.54
298.15 K, x1 = 0.778	824.17
298.15 K, x1 = 0.8302	839.02
298.15 K, x1 = 0.8787	853.8
298.15 K, x1 = 0.9206	867.23
298.15 K, x1 = 0.9879	890.2
298.15 K, x1 = 1	894.4
318.15 K, x1 = 0.053	668.2
318.15 K, x1 = 0.0902	672.9
318.15 K, x1 = 0.1685	683.15
318.15 K, x1 = 0.2326	692.18
318.15 K, x1 = 0.2439	693.85
318.15 K, x1 = 0.2981	702.14
318.15 K, x1 = 0.3991	719.02
318.15 K, x1 = 0.4184	722.43
318.15 K, x1 = 0.4793	733.7
318.15 K, x1 = 0.528	743.25
318.15 K, x1 = 0.5785	753.7
318.15 K, x1 = 0.6277	764.5
318.15 K, x1 = 0.6774	775.92
318.15 K, x1 = 0.7248	787.48
318.15 K, x1 = 0.7652	797.95
318.15 K, x1 = 0.7914	804.97
318.15 K, x1 = 0.8486	821.19
318.15 K, x1 = 0.9067	838.76
318.15 K, x1 = 0.9554	854.25
318.15 K, x1 = 1	869.6
328.15 K, x1 = 0.0084	654.45
328.15 K, x1 = 0.1044	665.69
328.15 K, x1 = 0.1911	676.99
328.15 K, x1 = 0.2817	690.09
328.15 K, x1 = 0.3479	700.46
328.15 K, x1 = 0.423	713.16
328.15 K, x1 = 0.488	725.11
328.15 K, x1 = 0.5492	737.13
328.15 K, x1 = 0.621	752.34
328.15 K, x1 = 0.6655	762.36
328.15 K, x1 = 0.7209	775.45
328.15 K, x1 = 0.7755	789.39
328.15 K, x1 = 0.8274	803.37
328.15 K, x1 = 0.8717	815.94
328.15 K, x1 = 0.9217	831.14
328.15 K, x1 = 0.9731	847.9
328.15 K, x1 = 1	857.17

[2]
Details	excess molar enthalpy [kcal/mol]
x1 = 0.0704	0.107
x1 = 0.1554	0.198
x1 = 0.2363	0.272
x1 = 0.3039	0.323
x1 = 0.3738	0.358
x1 = 0.4354	0.375
x1 = 0.4887	0.379
x1 = 0.5306	0.376
x1 = 0.5794	0.367
x1 = 0.6196	0.355
x1 = 0.6682	0.335
x1 = 0.7293	0.299
x1 = 0.7913	0.256
x1 = 0.8405	0.204
x1 = 0.9015	0.137
x1 = 0.9556	0.0667
